According to patent publication US20100092526A1, “NANOEMULSION THERAPEUTIC COMPOSITIONS AND METHODS OF USING THE SAME” (NanoBio Corporation, priority 2008, published 2010):
≈ marks a conversion by molar mass, not a printed value. Read-outs that look alike come from different tables or passages of the source.

Experiments:
Acinetobacter baumannii [1] = assay: MIC/MBC of nanoemulsions against gram-negative isolates (CLSI, alamar blue); type: cell-based
[2] = tested on: Stenotrophomonas maltophilia; assay: as above; type: cell-based
Acinetobacter baumannii [3] = assay: MIC/MBC against clinical isolates (CLSI, alamar blue); conditions: Acinetobacter baumannii
Klebsiella pneumoniae = assay: MIC/MBC of nanoemulsions against gram-negative isolates (CLSI, alamar blue); type: cell-based; conditions: Klebsiella pneumoniae (n = 5)
Pseudomonas aeruginosa [4] = assay: as above; type: cell-based; conditions: Pseudomonas aeruginosa (n = 5)
Burkholderia cepacia = assay: as above; type: cell-based; conditions: Burkholderia cepacia (n = 5)
[5] = tested on: Stenotrophomonas maltophilia; assay: MIC/MBC against CF isolates (CLSI, alamar blue); conditions: Stenotrophomonas maltophilia
Pseudomonas aeruginosa [6] = assay: MIC/MBC against CF isolates (CLSI, alamar blue); conditions: Pseudomonas aeruginosa
Escherichia coli = assay: MIC/MBC of nanoemulsions against gram-negative isolates (CLSI, alamar blue); type: cell-based; conditions: Escherichia coli (n = 5)
Proteus mirabilis = assay: as above; type: cell-based; conditions: Proteus mirabilis (n = 5)
Burkholderia cenocepacia = assay: MIC/MBC against CF isolates (CLSI, alamar blue); conditions: Burkholderia cenocepacia
[7] = nanoemulsions in the presence of 5 mM EDTA
[8] = Acinetobacter baumannii (n = 5)
[9] = nanoemulsions in the presence of 5 mM EDTA, in µg/mL
[10] = CF Stenotrophomonas isolate NB41
[11] = CF Stenotrophomonas isolate NB42
[12] = CF Stenotrophomonas isolate NB43
[13] = CF Stenotrophomonas isolate NB44
[14] = CF Stenotrophomonas isolate NB45
[15] = CF Stenotrophomonas isolate Steno 1
[16] = CF Stenotrophomonas isolate Steno 2
[17] = CF Stenotrophomonas isolate Steno 3
[18] = CF Stenotrophomonas isolate Steno 4
[19] = CF Stenotrophomonas isolate Steno 6
[20] = CF Stenotrophomonas isolate Steno 8
[21] = Stenotrophomonas maltophilia (n = 5)

Q: `O=C(O)CN(CCN(CC(=O)O)CC(=O)O)CC(=O)O` [EDTA, ethylenediaminetetraacetic acid] was tested. Which “strains inhibited by EDTA alone” value (Acinetobacter baumannii [1]; 5 isolates, 5 mM EDTA) did it give?
A: Its value is 3 strains.

Q: And the “strains inhibited by EDTA alone” value ([2]; 5 isolates, 5 mM EDTA)?
A: The value was 5 strains.

Q: What does the source list for `CC(C)(O/N=C(\C(=O)N[C@@H]1C(=O)N2C(C(=O)[O-])=C(C[n+]3ccccc3)CS[C@H]12)c1csc(N)n1)C(=O)O` [Ceftazidime]?
A: MIC50 (Acinetobacter baumannii [3]): > 32 µg/mL; MIC90 (Acinetobacter baumannii [3]): > 32 µg/mL; MBC (Acinetobacter baumannii [3]; Acinetobacter isolate NB31): > 32 µg/mL; MIC (Acinetobacter baumannii [3]; Acinetobacter isolate NB31): > 32 µg/mL; MBC (Acinetobacter baumannii [3]; Acinetobacter isolate NB32): > 32 µg/mL; MIC (Acinetobacter baumannii [3]; Acinetobacter isolate NB32): > 32 µg/mL; MBC (Acinetobacter baumannii [3]; Acinetobacter isolate NB33): > 32 µg/mL; MIC (Acinetobacter baumannii [3]; Acinetobacter isolate NB33): > 32 µg/mL; MBC (Acinetobacter baumannii [3]; Acinetobacter isolate NB34): 32 µg/mL (≈ 58.5 µM); MIC (Acinetobacter baumannii [3]; Acinetobacter isolate NB34): 32 µg/mL (≈ 58.5 µM); MBC (Acinetobacter baumannii [3]; Acinetobacter isolate NB35): > 32 µg/mL; MIC (Acinetobacter baumannii [3]; Acinetobacter isolate NB35): > 32 µg/mL; MBC (Acinetobacter baumannii [3]; Acinetobacter isolate NB36): 4 µg/mL (≈ 7.32 µM); MIC (Acinetobacter baumannii [3]; Acinetobacter isolate NB36): 2 µg/mL (≈ 3.66 µM); MBC (Acinetobacter baumannii [3]; Acinetobacter isolate NB37): 32 µg/mL (≈ 58.5 µM); MIC (Acinetobacter baumannii [3]; Acinetobacter isolate NB37): 32 µg/mL (≈ 58.5 µM); MBC (Acinetobacter baumannii [3]; Acinetobacter isolate NB38): > 32 µg/mL; MIC (Acinetobacter baumannii [3]; Acinetobacter isolate NB38): > 32 µg/mL; MBC (Acinetobacter baumannii [3]; Acinetobacter isolate NB39): > 32 µg/mL; MIC (Acinetobacter baumannii [3]; Acinetobacter isolate NB39): 32 µg/mL (≈ 58.5 µM); MBC (Acinetobacter baumannii [3]; Acinetobacter isolate NB40): > 32 µg/mL; MIC (Acinetobacter baumannii [3]; Acinetobacter isolate NB40): > 32 µg/mL; MBC (Acinetobacter baumannii [3]; read-out: MBC 50, 10 Acinetobacter isolates): > 32 µg/mL; % resistant (Klebsiella pneumoniae): 20.0%; % susceptible (Klebsiella pneumoniae): 80.0%; MIC50 (Klebsiella pneumoniae; [7]): ≤ 1 µg/mL; % resistant (Acinetobacter baumannii [1]; [8]): 20.0%; % susceptible (Acinetobacter baumannii [1]; [8]): 80.0%; MIC50 (Acinetobacter baumannii [1]; Acinetobacter baumannii (n = 5), nanoemulsions in the presence of 5 mM EDTA): 4 µg/mL; % resistant (Pseudomonas aeruginosa [4]): 0.0%; % susceptible (Pseudomonas aeruginosa [4]): 100.0%; MIC50 (Pseudomonas aeruginosa [4]; [7]): 2 µg/mL; MIC Range (Pseudomonas aeruginosa [4]; [9]): 2-4; % resistant (Burkholderia cepacia): 0.0%; % susceptible (Burkholderia cepacia): 100.0%; MIC50 (Burkholderia cepacia; [7]): 2 µg/mL; MIC Range (Burkholderia cepacia; [9]): 2-4; MIC50 [5]: > 32 µg/mL; MIC90 [5]: > 32 µg/mL; MBC [5, 10]: > 32 µg/mL; MIC [5, 10]: > 32 µg/mL; MBC [5, 11]: > 32 µg/mL; MIC [5, 11]: 8 µg/mL (≈ 14.6 µM); MBC [5, 12]: > 32 µg/mL; MIC [5, 12]: > 32 µg/mL; MBC [5, 13]: > 32 µg/mL; MIC [5, 13]: > 32 µg/mL; MBC [5, 14]: > 32 µg/mL; MIC [5, 14]: > 32 µg/mL; MBC [5, 15]: > 32 µg/mL; MIC [5, 15]: > 32 µg/mL; MBC [5, 16]: > 32 µg/mL; MIC [5, 16]: > 32 µg/mL; MBC [5, 17]: > 32 µg/mL; MIC [5, 17]: > 32 µg/mL; MBC [5, 18]: 16 µg/mL (≈ 29.3 µM); MIC [5, 18]: 2 µg/mL (≈ 3.66 µM); MBC [5, 19]: > 32 µg/mL; MIC [5, 19]: 32 µg/mL (≈ 58.5 µM); MBC [5, 20]: > 32 µg/mL; MIC [5, 20]: 16 µg/mL (≈ 29.3 µM); MBC ([5]; read-out: MBC 50, 11 CF Stenotrophomonas isolates): > 32 µg/mL; MBC (Pseudomonas aeruginosa [6]; CF Pseudomonas isolate NB12): 512 µg/mL (≈ 937 µM); MIC (Pseudomonas aeruginosa [6]; CF Pseudomonas isolate NB12): 256 µg/mL (≈ 468 µM); MBC (Pseudomonas aeruginosa [6]; CF Pseudomonas isolate NB13): 512 µg/mL (≈ 937 µM); MIC (Pseudomonas aeruginosa [6]; CF Pseudomonas isolate NB13): 512 µg/mL (≈ 937 µM); MBC (Pseudomonas aeruginosa [6]; CF Pseudomonas isolate NB14): > 1020 µg/mL; MIC (Pseudomonas aeruginosa [6]; CF Pseudomonas isolate NB14): 1020 µg/mL (≈ 1870 µM); MBC (Pseudomonas aeruginosa [6]; CF Pseudomonas isolate NB15): 512 µg/mL (≈ 937 µM); MIC (Pseudomonas aeruginosa [6]; CF Pseudomonas isolate NB15): 256 µg/mL (≈ 468 µM); MBC (Pseudomonas aeruginosa [6]; CF Pseudomonas isolate NB16): > 1020 µg/mL; MIC (Pseudomonas aeruginosa [6]; CF Pseudomonas isolate NB16): 256 µg/mL (≈ 468 µM); MBC (Pseudomonas aeruginosa [6]; CF Pseudomonas isolate NB19): 1020 µg/mL (≈ 1870 µM); MIC (Pseudomonas aeruginosa [6]; CF Pseudomonas isolate NB19): 512 µg/mL (≈ 937 µM); MBC (Pseudomonas aeruginosa [6]; CF Pseudomonas isolate NB20): 512 µg/mL (≈ 937 µM); MIC (Pseudomonas aeruginosa [6]; CF Pseudomonas isolate NB20): 256 µg/mL (≈ 468 µM); % resistant (Escherichia coli): 20.0%; % susceptible (Escherichia coli): 80.0%; MIC50 (Escherichia coli; [7]): ≤ 1 µg/mL; % resistant (Proteus mirabilis): 0.0%; % susceptible (Proteus mirabilis): 100.0%; MIC50 (Proteus mirabilis; [7]): ≤ 1 µg/mL; MIC Range (Proteus mirabilis; [9]): <=1; MBC (Burkholderia cenocepacia; CF Burkholderia isolate NB21): > 32 µg/mL; MIC (Burkholderia cenocepacia; CF Burkholderia isolate NB21): 8 µg/mL (≈ 14.6 µM); MBC (Burkholderia cenocepacia; CF Burkholderia isolate NB22): > 32 µg/mL; MIC (Burkholderia cenocepacia; CF Burkholderia isolate NB22): 8 µg/mL (≈ 14.6 µM); MBC (Burkholderia cenocepacia; CF Burkholderia isolate NB23): > 32 µg/mL; MIC (Burkholderia cenocepacia; CF Burkholderia isolate NB23): > 32 µg/mL; MBC (Burkholderia cenocepacia; CF Burkholderia isolate NB24): 32 µg/mL (≈ 58.5 µM); MIC (Burkholderia cenocepacia; CF Burkholderia isolate NB24): 4 µg/mL (≈ 7.32 µM); MBC (Burkholderia cenocepacia; CF Burkholderia isolate NB25): 32 µg/mL (≈ 58.5 µM); MIC (Burkholderia cenocepacia; CF Burkholderia isolate NB25): 16 µg/mL (≈ 29.3 µM); MBC (Burkholderia cenocepacia; CF Burkholderia isolate NB26): 32 µg/mL (≈ 58.5 µM); MIC (Burkholderia cenocepacia; CF Burkholderia isolate NB26): 16 µg/mL (≈ 29.3 µM); MBC (Burkholderia cenocepacia; CF Burkholderia isolate NB27): 16 µg/mL (≈ 29.3 µM); MIC (Burkholderia cenocepacia; CF Burkholderia isolate NB27): 8 µg/mL (≈ 14.6 µM); MBC (Burkholderia cenocepacia; CF Burkholderia isolate NB28b): 16 µg/mL (≈ 29.3 µM); MIC (Burkholderia cenocepacia; CF Burkholderia isolate NB28b): 16 µg/mL (≈ 29.3 µM); MBC (Burkholderia cenocepacia; CF Burkholderia isolate NB29): > 32 µg/mL; MIC (Burkholderia cenocepacia; CF Burkholderia isolate NB29): 4 µg/mL (≈ 7.32 µM); MBC (Burkholderia cenocepacia; CF Burkholderia isolate NB30): 2 µg/mL (≈ 3.66 µM); MIC (Burkholderia cenocepacia; CF Burkholderia isolate NB30): 2 µg/mL (≈ 3.66 µM); % resistant [2, 21]: 40.0/40.0%; % susceptible [2, 21]: 40.0/40.0%; MIC50 ([2]; Stenotrophomonas maltophilia (n = 5), nanoemulsions in the presence of 5 mM EDTA): 16 µg/mL
